Tests used:
Test in all cases: NCI60 screen (SRB)
Format in all cases: cell-based, human
CCRF-CEM (Leukemia) = conditions: one dose 10 µM, 48 h
MOLT-4 (Leukemia) = conditions: one dose 10 µM, 48 h
[1] = test system: EKVX (Non-Small Cell Lung Cancer); conditions: one dose 10 µM, 48 h
[2] = test system: HOP-92 (Non-Small Cell Lung Cancer); conditions: one dose 10 µM, 48 h
[3] = test system: NCI-H226 (Non-Small Cell Lung Cancer); conditions: one dose 10 µM, 48 h
[4] = test system: NCI-H23 (Non-Small Cell Lung Cancer); conditions: one dose 10 µM, 48 h
[5] = test system: NCI-H322M (Non-Small Cell Lung Cancer); conditions: one dose 10 µM, 48 h
[6] = test system: NCI-H460 (Non-Small Cell Lung Cancer); conditions: one dose 10 µM, 48 h
[7] = test system: NCI-H522 (Non-Small Cell Lung Cancer); conditions: one dose 10 µM, 48 h
SF-268 (CNS Cancer) = conditions: one dose 10 µM, 48 h
LOX IMVI (Melanoma) = conditions: one dose 10 µM, 48 h
SK-MEL-5 (Melanoma) = conditions: one dose 10 µM, 48 h
UACC-257 (Melanoma) = conditions: one dose 10 µM, 48 h
IGROV1 (Ovarian Cancer) = conditions: one dose 10 µM, 48 h
OVCAR-3 (Ovarian Cancer) = conditions: one dose 10 µM, 48 h
OVCAR-4 (Ovarian Cancer) = conditions: one dose 10 µM, 48 h
OVCAR-5 (Ovarian Cancer) = conditions: one dose 10 µM, 48 h
OVCAR-8 (Ovarian Cancer) = conditions: one dose 10 µM, 48 h
[8] = test system: NCI/ADR-RES (Ovarian Cancer); conditions: one dose 10 µM, 48 h
786-0 (Renal Cancer) = conditions: one dose 10 µM, 48 h
RXF 393 (Renal Cancer) = conditions: one dose 10 µM, 48 h
SN12C (Renal Cancer) = conditions: one dose 10 µM, 48 h
DU-145 (Prostate Cancer) = conditions: one dose 10 µM, 48 h
HS 578T (Breast Cancer) = conditions: HS 578T; one dose 10 µM; 48 h

Compound	growth percent (CCRF-CEM (Leukemia))	growth percent (MOLT-4 (Leukemia))	growth percent [1]	growth percent [2]	growth percent [3]	growth percent [4]	growth percent [5]	growth percent [6]	growth percent [7]	growth percent (SF-268 (CNS Cancer))	growth percent (LOX IMVI (Melanoma))	growth percent (SK-MEL-5 (Melanoma))	growth percent (UACC-257 (Melanoma))	growth percent (IGROV1 (Ovarian Cancer))	growth percent (OVCAR-3 (Ovarian Cancer))	growth percent (OVCAR-4 (Ovarian Cancer))	growth percent (OVCAR-5 (Ovarian Cancer))	growth percent (OVCAR-8 (Ovarian Cancer))	growth percent [8]	growth percent (786-0 (Renal Cancer))	further results
COc1ccc(/C=C/C(c2cc(OC)c(OC)c(OC)c2)n2ccnc2)cc1O (stereo not drawn) [Compound 23b, (E)-5-(3-(1H-Imidazol-1-yl)-3-(3,4,5-trimethoxyphenyl)prop-1-en-1-yl)-2-methoxyphenol]	37.13%	31.88%	81.22%	30.49%	88.36%	55.69%	45.84%	16.55%	24.65%	56.10%	46.09%	16.98%	34.19%	55.74%	4.86%	78.81%	102.8%	40.97%	45.70%	34.04%	growth percent (RXF 393 (Renal Cancer)): 33.07%; growth percent (SN12C (Renal Cancer)): 57.15%; growth percent (DU-145 (Prostate Cancer)): 37.76%; growth percent (HS 578T (Breast Cancer)): 32.05%
COc1ccc(C2CC(n3ccnc3)c3cc(OC)c(OC)c(OC)c32)cc1O (stereo not drawn) [Compound 27a, 5-(3-(1H-Imidazol-1-yl)-5,6,7-trimethoxy-2,3-dihydro-1H-inden-1-yl)-2-methoxyphenol]	90.92%	90.04%	100.83%	59.58%	97.37%	91.50%	101.51%	78.74%	50.13%	89.96%	86.38%	53.15%	58.46%	82.43%	57.06%	100.34%	106.81%	89.25%	93.87%	91.67%	growth percent (RXF 393 (Renal Cancer)): 70.77%; growth percent (SN12C (Renal Cancer)): 104.36%; growth percent (DU-145 (Prostate Cancer)): 102.37%; growth percent (HS 578T (Breast Cancer)): 85.38%
COc1cc(/C=C/C(/C=C/c2cc(OC)c(OC)c(OC)c2)n2ccnc2)cc(OC)c1OC [Compound 30, 1-((1E,4E)-1,5-bis(3,4,5-trimethoxyphenyl)penta-1,4-dien-3-yl)-1H-imidazole]	65.10%	74.07%	94.43%	56.24%	84.81%	81.16%	96.68%	93.96%	64.75%	91.93%	85.14%	62.09%	75.61%	78.02%	83.41%	92.69%	129.83%	83.74%	89.35%	95.20%	growth percent (RXF 393 (Renal Cancer)): 88.15%; growth percent (SN12C (Renal Cancer)): 84.52%; growth percent (DU-145 (Prostate Cancer)): 100.17%; growth percent (HS 578T (Breast Cancer)): 77.21%
